# Experimental data published in ChEMBL document CHEMBL1817618, “Synthesis and evaluation of dual site inhibitors of 3-deoxy-D-arabino-heptulosonate 7-phosphate synthase” (Bioorg Med Chem Lett, 2011).
# Key:
# [1] = molecular target: T1, Phospho-2-dehydro-3-deoxyheptonate aldolase (Escherichia coli, UniProt C3TIE2); test: Inhibition of recombinant Escherichia coli DAH7P synthase
# [2] = molecular target: T1, Phospho-2-dehydro-3-deoxyheptonate aldolase; test: Competitive inhibition of recombinant Escherichia coli DAH7P synthase using PEP as substrate by Michaelis-Menten equation analysis using UV-visible spectrophotometry
# T1 sequence (C3TIE2 whole entry): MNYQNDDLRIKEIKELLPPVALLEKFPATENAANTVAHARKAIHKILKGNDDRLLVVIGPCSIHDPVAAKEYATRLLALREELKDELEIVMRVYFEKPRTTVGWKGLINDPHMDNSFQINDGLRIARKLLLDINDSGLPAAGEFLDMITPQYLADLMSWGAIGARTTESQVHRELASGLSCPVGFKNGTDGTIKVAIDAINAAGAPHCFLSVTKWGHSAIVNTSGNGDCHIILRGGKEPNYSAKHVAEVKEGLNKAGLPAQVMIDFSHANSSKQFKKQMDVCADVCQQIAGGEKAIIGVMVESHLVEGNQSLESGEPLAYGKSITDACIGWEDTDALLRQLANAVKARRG
Compound,Ki [1],Ki [2]
C=C(CP(=O)(O)O)C(=O)O,270 µM,
C/C(=C\P(=O)(O)O)C(=O)O,4.7 µM,
O=C(O)/C(=C/P(=O)(O)O)CCCCCBr,,3.6 µM
O=C(O)C(=CCCCCOP(=O)(O)O)CP(=O)(O)O (mixture of isomers),,154 µM
O=C(O)C(=CP(=O)(O)O)CCCCCOP(=O)(O)O (mixture of isomers),,5.3 µM
